Source: patent US9487553B2, “Boranophosphate analogues of cyclic nucleotides” (BIOLOG LIFE SCIENCE INSTITUTE FORSCHUNGSLABOR UND …, priority 2011, dated 2016)

Legend:
[1] = target: protein kinase A type II alpha holoenzyme (Homo sapiens, UniProt P13861); test: Photometric (Cook) assay with protein kinase A type II alpha holoenzyme; assay type: biochemical; settings: for effect on protein kinase A type II alpha holoenzyme: photometric assay
Description: In another similar experiment the properties of Rp- and Sp-8-Br-cAMPB towards protein kinase A type II a were investigated in the photometric assay (Cook, P. F., Neville, M. E., Jr., Vrana, K. E., Hartl, F. T. and Roskoski, R., Jr., Biochemistry 21, 5794-5799 (1982))

protein kinase G I α = target: T1, protein kinase G I α (Homo sapiens, UniProt Q13976); test: Protein kinase G I alpha activation, phosphotransferyl assay; assay type: biochemical; settings: 10 nM, 100 nM and 1 μM
T1 sequence (Q13976 1-671): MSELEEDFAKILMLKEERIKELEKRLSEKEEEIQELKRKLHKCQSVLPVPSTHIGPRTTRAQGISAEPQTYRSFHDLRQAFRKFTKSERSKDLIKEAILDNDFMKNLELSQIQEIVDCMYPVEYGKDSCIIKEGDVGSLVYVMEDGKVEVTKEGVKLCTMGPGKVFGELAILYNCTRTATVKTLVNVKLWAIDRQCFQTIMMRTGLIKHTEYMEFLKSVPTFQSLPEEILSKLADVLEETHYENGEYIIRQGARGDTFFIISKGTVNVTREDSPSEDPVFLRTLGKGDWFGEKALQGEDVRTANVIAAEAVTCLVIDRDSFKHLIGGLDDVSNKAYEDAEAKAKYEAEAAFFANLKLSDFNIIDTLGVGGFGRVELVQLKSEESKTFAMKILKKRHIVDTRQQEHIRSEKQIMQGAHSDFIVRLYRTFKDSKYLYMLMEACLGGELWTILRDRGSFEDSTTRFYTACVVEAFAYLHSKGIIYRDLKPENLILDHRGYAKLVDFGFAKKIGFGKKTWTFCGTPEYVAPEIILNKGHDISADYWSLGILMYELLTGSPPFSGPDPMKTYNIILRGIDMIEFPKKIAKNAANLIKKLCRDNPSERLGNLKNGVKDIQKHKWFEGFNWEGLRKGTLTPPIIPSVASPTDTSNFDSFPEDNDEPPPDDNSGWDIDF
Description: Next, the activity profile of some cyclic boranophosphates disclosed in this invention has also been investigated on protein kinase G I α (FIGS. 8 and 9). Potential activatory potential towards the enzyme has been determined by a standard phosphotransferyl assay protocol according to Dostmann et al. (Dostmann, W. R.; Nickl, C.; Thiel, S.; Tsigelny, I.; Frank, R.; and Tegge, W. J., Pharmacol. Ther., 82, 373-387 (1999). FIG. 8 depicts the activity (μmol×min^−1×mg^−1) overview of six different cyclic boranophosphate analogues with protein kinase G type I at 10 nM, 100 nM and 1 μM. BLG-9108: […]; BLG-9110: Sp-8-Br-cAMPB; BLG-9111: Rp-8-Br-cAMPB; BLG-9112: Sp-8-Br-cGMPB; BLG-9113: Rp-8-Br-cGMPB; control: cyclic GMP.

bovine CNGA2 channels = target: T2, bovine CNGA2 channels (Bos taurus, UniProt Q03041); test: Patch-clamp of inside-out oocyte membrane patches with olfactory CNGA2 channels; assay type: cell-based; settings: for current, % of its maximal value: 500 μM compound, maximal value at 500 μM cAMP, n=3; for inhibition of channel activation by cAMP: applied in the presence of cAMP; for current amplitude, % of the amplitude observed in the absence of the compound: 50 μM cAMP, 50 μM compound, n=9
T2 construct: expressed in transfected cells; host or cells: Xenopus laevis oocytes (cRNA injection; inside-out membrane patches)
T2 sequence (Q03041 1-663): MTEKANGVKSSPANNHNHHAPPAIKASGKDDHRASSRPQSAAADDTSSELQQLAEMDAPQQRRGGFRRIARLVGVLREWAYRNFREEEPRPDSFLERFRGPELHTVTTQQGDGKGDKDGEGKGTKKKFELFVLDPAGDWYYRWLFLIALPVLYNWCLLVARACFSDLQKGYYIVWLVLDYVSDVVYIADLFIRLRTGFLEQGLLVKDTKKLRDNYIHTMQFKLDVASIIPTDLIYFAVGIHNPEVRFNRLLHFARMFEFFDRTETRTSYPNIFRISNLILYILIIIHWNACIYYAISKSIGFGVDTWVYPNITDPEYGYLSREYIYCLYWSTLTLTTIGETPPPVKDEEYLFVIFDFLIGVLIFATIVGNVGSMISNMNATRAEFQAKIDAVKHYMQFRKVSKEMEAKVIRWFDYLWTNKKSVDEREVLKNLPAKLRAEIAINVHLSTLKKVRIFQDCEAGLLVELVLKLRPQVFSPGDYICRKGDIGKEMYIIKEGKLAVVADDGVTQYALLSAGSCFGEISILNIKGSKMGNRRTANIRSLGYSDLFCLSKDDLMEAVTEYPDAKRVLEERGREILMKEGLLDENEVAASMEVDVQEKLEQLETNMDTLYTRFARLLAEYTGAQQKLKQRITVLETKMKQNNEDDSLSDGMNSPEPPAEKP
Description: Next, the effects of cyclic nucleotide boranophosphates, disclosed in this invention, on olfactory cyclic nucleotide-gated ion channels in clamps of oocyte cell membrane patches were investigated.
For the experiments, oocytes were obtained and prepared as described previously (Biskup, C. et al., Nature 446, 440-443 (2007)). In brief, oocytes were obtained by partial ovariectomy from adult females of Xenopus laevis anaesthesized with 0.3% 3-aminobenzoic acid ethyl ester (Sigma). The oocytes were treated for 60-90 min with 1.2 mg/ml collagenase (Type I, Sigma) and separated manually. 40-70 nl of a solution containing cRNA encoding bovine CNGA2 channels (accession No. X55010) was injected, and the oocytes were incubated at 18° C. in Barth medium until they were used for the experiments within 3-6 days after injection. Immediately prior to the experiments the vitelline membrane of the oocytes was removed.
Currents were recorded in inside-out patches with the patch-clamp technique. The patch pipettes were pulled from quartz tubing (outer diameter 1.0 mm, inner diameter 0.7 mm) using a laser puller (P-2000, Sutter Instrument, Novato, Calif.). The pipette resistance was 0.8-2.5 MΩ. Recording was performed with an Axopatch 200B amplifier (Molecular Devices, Sunnyvale, Calif.). All experiments were performed with the same recording solution in the bath and the pipette containing (in mM) 150 KCl, 1 EGTA, 5 HEPES. pH was adjusted to 7.4 with KOH.
Measurements were controlled and data were collected with the ISO3 setup (MFK, Niedernhausen, Germany). The sampling rate was 5 kHz (filter 2 kHz). To test for possible background channel activity, each excised patch was first exposed to a solution containing no cyclic nucleotides.
FIGS. 15 A-C depict the agonistic activity of Rp-8-Br-cAMPB on CNGA2 channels. Currents were recorded in a patch containing CNGA2 channels. The patch membrane was clamped subsequently from 0 mV to −50 mV, +50 mV and back to 0 mV. […] (C) Current measured in the presence of 500 μM Rp-8-Br-cAMPB.
FIGS. 16 A-F depict the antagonistic activity of Sp-8-Br-cAMPB on CNGA2 channels. Currents were recorded in a patch containing CNGA2 channels. The patch membrane was clamped subsequently from 0 mV to −50 mV, +50 mV and back to 0 mV.

protein kinase A type II alpha holoenzyme, sequence (P13861 whole entry): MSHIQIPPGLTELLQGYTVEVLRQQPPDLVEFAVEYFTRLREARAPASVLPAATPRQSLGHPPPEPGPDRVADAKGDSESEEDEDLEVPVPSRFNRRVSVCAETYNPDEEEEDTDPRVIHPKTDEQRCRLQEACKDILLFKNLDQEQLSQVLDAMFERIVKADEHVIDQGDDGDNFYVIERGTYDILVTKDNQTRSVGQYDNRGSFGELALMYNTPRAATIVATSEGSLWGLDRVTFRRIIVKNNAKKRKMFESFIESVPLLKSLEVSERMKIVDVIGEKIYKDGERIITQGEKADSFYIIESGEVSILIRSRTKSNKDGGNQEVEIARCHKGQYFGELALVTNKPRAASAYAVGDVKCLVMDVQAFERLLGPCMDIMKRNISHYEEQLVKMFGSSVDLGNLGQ

| Substance | effect on protein kinase A type II alpha holoenzyme [1] | modulation of protein kinase G (protein kinase G I α) | current, % of its maximal value (bovine CNGA2 channels; +50 mV) [%] | current, % of its maximal value (bovine CNGA2 channels; −50 mV, mean±SEM) [%] | inhibition of channel activation by cAMP (bovine CNGA2 channels) | preference for protein kinase A type I over type II, factor ([1]; antagonist) | current amplitude, % of the amplitude observed in the absence of the compound (bovine CNGA2 channels; +50 mV) [%] | current amplitude, % of the amplitude observed in the absence of the compound (bovine CNGA2 channels; −50 mV) [%] | intrinsic activity on CNGA2 channels (bovine CNGA2 channels; up to 100 μM, absence of cAMP) |
| --- | --- | --- | --- | --- | --- | --- | --- | --- | --- |
| 8-Bromoadenosine-3′,5′-cyclic boranophosphate, Rp-isomer [Rp-8-Br-cAMPB] | even higher activation potential | as potent or even better as guanine related compounds | 14±4 | 7±1 | does not inhibit channel activation by cAMP | – | – | – | – |
| 8-Bromoadenosine-3′,5′-cyclic boranophosphate, Sp-isomer [Sp-8-Br-cAMPB] | only moderately antagonistic | as potent or even better as guanine related compounds | – | – | competitive antagonist | 14 | 48±11 | 34±9 | did not show any intrinsic activity |
